Test results: patent publication US10233177B2, “TRPV1 vanilloid receptor antagonists with a bicyclic portion” (Serentrix LLC, priority 2010, dated 2019)
Read-outs that look alike come from different tables or passages of the source.

Target: TRPV1 (Rattus norvegicus (Rat), UniProt O35433)
Experiment: Ca2+ fluorescence measurements in cultured rat dorsal root ganglia neurons (capsaicin-induced calcium uptake)
Assay type: cell-based
Conditions: rat DRG neurons; for inhibition at 0.3 µM: DRG neuron
[1] = Table 1, formula IA-C, 300 nM against calcium uptake induced by 30 nM capsaicin, read-out: % inhibition at 300 nM
[2] = capsaicin-induced calcium uptake, read-out: inhibition of the calcium uptake
[3] = Table 1, against capsaicin-evoked [Ca2+]i mobilization, read-out: IC50
[4] = 300 nM, read-out: abolition of capsaicin response at 300 nM
[5] = Table 3, formula IF-H, 300 nM against calcium uptake induced by 30 nM capsaicin, read-out: % inhibition at 300 nM

TRPV1, sequence (O35433 whole entry): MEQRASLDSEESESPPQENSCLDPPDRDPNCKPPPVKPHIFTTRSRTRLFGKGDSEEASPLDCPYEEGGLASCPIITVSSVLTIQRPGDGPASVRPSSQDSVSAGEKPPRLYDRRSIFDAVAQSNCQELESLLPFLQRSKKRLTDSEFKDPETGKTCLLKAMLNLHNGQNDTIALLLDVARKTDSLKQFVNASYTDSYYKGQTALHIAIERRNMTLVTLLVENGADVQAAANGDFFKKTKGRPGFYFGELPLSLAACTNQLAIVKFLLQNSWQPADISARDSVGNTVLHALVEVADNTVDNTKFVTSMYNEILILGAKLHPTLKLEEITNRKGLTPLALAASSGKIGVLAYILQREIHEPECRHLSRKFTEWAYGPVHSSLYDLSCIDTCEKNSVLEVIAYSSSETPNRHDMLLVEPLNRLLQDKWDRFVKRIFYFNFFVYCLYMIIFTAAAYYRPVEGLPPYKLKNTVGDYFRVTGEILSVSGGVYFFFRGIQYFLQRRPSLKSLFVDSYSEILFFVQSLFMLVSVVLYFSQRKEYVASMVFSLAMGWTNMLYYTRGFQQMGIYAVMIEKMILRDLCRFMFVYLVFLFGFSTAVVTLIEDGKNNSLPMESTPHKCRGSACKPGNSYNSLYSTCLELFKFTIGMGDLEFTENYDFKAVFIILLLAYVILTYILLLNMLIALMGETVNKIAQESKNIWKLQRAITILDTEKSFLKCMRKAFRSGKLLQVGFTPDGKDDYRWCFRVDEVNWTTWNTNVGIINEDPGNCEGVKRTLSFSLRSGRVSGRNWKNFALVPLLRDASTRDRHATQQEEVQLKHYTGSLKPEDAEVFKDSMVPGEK

Compound: O=C(NCc1ccc(N2CCCCC2)cc1)Nc1cccc2[nH]c(=O)[nH]c12 [Example 16, 1-(4-(piperidin-1-yl)benzyl)-3-(2,3-dihydro-2-oxo-1H-benzo[d]imidazol-4-yl)urea]
- inhibition at 0.3 µM [1]: 86%
- inhibition at 0.3 µM [2]: > 80%

Compound: O=C(NCc1ccc(Cl)cc1)Nc1cccc2[nH]c(=O)[nH]c12 [Example 10, 1-(4-chlorobenzyl)-3-(2,3-dihydro-2-oxo-1H-benzo[d]imidazol-4-yl)urea]
- inhibition at 0.3 µM [1]: 89%
- inhibition at 0.3 µM [2]: > 80%
- IC50 [3]: 79 nM

Compound: O=C(NCc1ccc(F)cc1)Nc1cccc2[nH]c(=O)[nH]c12 [Example 9, 1-(4-fluorobenzyl)-3-(2,3-dihydro-2-oxo-1H-benzo[d]imidazol-4-yl)urea]
- inhibition at 0.3 µM [1]: 18%

Compound: CN(C)c1cc(C(F)(F)F)ccc1CNC(=O)Nc1cccc2[nH]c(=O)[nH]c12 [Example 4, 1-(2-(dimethylamino)-4-(trifluoromethyl)benzyl)-3-(2,3-dihydro-2-oxo-1H-benzo[d]imidazol-4-yl)urea]
- inhibition at 0.3 µM [4]: ~100%
- inhibition at 0.3 µM [1]: 100%
- inhibition at 0.3 µM [2]: > 80%
- IC50 [3]: 4.07 nM
- IC50 (read-out: IC50 against capsaicin-evoked [Ca2+]i mobilization): 4.07 nM

Compound: CN(C)c1cc(Cl)ccc1CNC(=O)Nc1cccc2[nH]c(=O)[nH]c12 [Example 11, 1-(4-chloro-2-(dimethylamino)benzyl)-3-(2,3-dihydro-2-oxo-1H-benzo[d]imidazol-4-yl)urea]
- inhibition at 0.3 µM [1]: 82%
- inhibition at 0.3 µM [2]: > 80%
- IC50 [3]: 12 nM

Compound: O=C(NCc1ccc(C(F)(F)F)cc1N1CCCCC1)c1cccc2oc(=O)[nH]c12 [Example 60, N-(4-(trifluoromethyl)-2-(piperidin-1-yl)benzyl)-2,3-dihydro-2-oxobenzo[d]oxazole-4-carboxamide]
- inhibition at 0.3 µM [5]: 8%

Compound: O=C(NCc1ccc(C(F)(F)F)cc1-n1cncn1)Nc1cccc2[nH]c(=O)[nH]c12 [Example 8, 1-(4-(trifluoromethyl)-2-(1H-1,2,4-triazol-1-yl)benzyl)-3-(2,3-dihydro-2-oxo-1H-benzo[d]imidazol-4-yl)urea]
- inhibition at 0.3 µM [1]: 2%

Compound: CN(C)c1cc(Cl)ccc1CNC(=O)Nc1cccc2c1OCC(=O)N2 [Example 50, 1-(4-chloro-2-(dimethylamino)benzyl)-3-(3,4-dihydro-3-oxo-2H-benzo[b][1,4]oxazin-8-yl)urea]
- inhibition at 0.3 µM [1]: 52%

Compound: O=C(NCc1ccc(C(F)(F)F)cc1N1CCCC1)Nc1cccc2oc(=O)[nH]c12 [Example 30, 1-(4-(trifluoromethyl)-2-(pyrrolidin-1-yl)benzyl)-3-(2,3-dihydro-2-oxobenzo[d]oxazol-4-yl)urea]
- inhibition at 0.3 µM [1]: 44%

Compound: O=C1COc2cccc(NC(=O)NCc3ccc(C(F)(F)F)cc3N3CCCC3)c2N1 [Example 43, 1-(4-(trifluoromethyl)-2-(pyrrolidin-1-yl)benzyl)-3-(3,4-dihydro-3-oxo-2H-benzo[b][1,4]oxazin-5-yl)urea]
- inhibition at 0.3 µM [1]: 23%

Compound: CN(C)c1nc(C(F)(F)F)ccc1CNC(=O)Nc1cccc2[nH]c(=O)[nH]c12 [Example 69, 1-[[2-dimethylamino-6-(trifluoromethyl)-3-pyridyl]methyl]-3-(2-oxo-1,3-dihydrobenzimidazol-4-yl)urea]
- inhibition at 0.3 µM [1]: 80%
- inhibition at 0.3 µM [2]: > 80%
- IC50 [3]: 92 nM

Compound: O=C(NCc1ccc(C(F)(F)F)cc1N1CCCCC1)Nc1cccc2[nH]c(=O)oc12 [Example 36, 1-(4-(trifluoromethyl)-2-(piperidin-1-yl)benzyl)-3-(2,3-dihydro-2-oxobenzo[d]oxazol-7-yl)urea]
- inhibition at 0.3 µM [4]: ~100%
- inhibition at 0.3 µM [1]: 100%
- inhibition at 0.3 µM [2]: > 80%

Compound: Cc1ccc(CNC(=O)Nc2cccc3c2OCC(=O)N3)c(OC(C)C)c1 [Example 84, 1-[(2-isopropoxy-4-methyl-phenyl)methyl]-3-(3-oxo-4H-1,4-benzoxazin-8-yl)urea]
- inhibition at 0.3 µM [1]: 61%

Compound: O=C(NCc1ccc(Cl)cc1C(F)(F)F)Nc1cccc2oc(=O)[nH]c12 [Example 28, 1-(4-chloro-2-(trifluoromethyl)benzyl)-3-(2,3-dihydro-2-oxobenzo[d]oxazol-4-yl)urea]
- inhibition at 0.3 µM [1]: 40%

Compound: O=C1COc2c(cccc2NC(=O)NCc2ccc(C(F)(F)F)cc2-n2ccnc2)N1 [Example 88, 1-[[2-(imidazol-1-yl)-4-(trifluoromethyl)phenyl]methyl]-3-(3-oxo-4H-1,4-benzoxazin-8-yl)urea]
- inhibition at 0.3 µM [1]: 75%

Compound: O=C1COc2c(cccc2C(=O)NCc2ccc(C(F)(F)F)cc2N2CCCCC2)N1 [Example 64, N-(4-(trifluoromethyl)-2-(piperidin-1-yl)benzyl)-3,4-dihydro-3-oxo-2H-benzo[b][1,4]oxazine-8-carboxamide]
- inhibition at 0.3 µM [5]: 65%

Compound: CN(C)CCOc1cc(C(F)(F)F)ccc1CNC(=O)Nc1cccc2c1OCC(=O)N2 [Example 92, 1-[[2-(2-dimethylaminoethoxy)-4-(trifluoromethyl)phenyl]methyl]-3-(3-oxo-4H-1,4-benzoxazin-8-yl)urea]
- inhibition at 0.3 µM [1]: 12%

Compound: O=C1COc2c(cccc2NC(=O)NCc2ccc(C(F)(F)F)cc2)N1 [Example 45, 1-(4-(trifluoromethyl)benzyl)-3-(3,4-dihydro-3-oxo-2H-benzo[b][1,4]oxazin-8-yl)urea]
- inhibition at 0.3 µM [4]: ~100%
- inhibition at 0.3 µM [1]: 100%
- inhibition at 0.3 µM [2]: > 80%

Compound: Cc1ccc(CNC(=O)Nc2cccc3[nH]c(=O)[nH]c23)c(N2CCCCC2)c1 [Example 19, 1-(4-methyl-2-(piperidin-1-yl)benzyl)-3-(2,3-dihydro-2-oxo-1H-benzo[d]imidazol-4-yl)urea]
- inhibition at 0.3 µM [4]: ~100%
- inhibition at 0.3 µM [1]: 99%
- inhibition at 0.3 µM [2]: > 80%

Compound: CC(C)(C)c1ccc(CNC(=O)Nc2cccc3[nH]c(=O)[nH]c23)c(Cl)c1 [Example 74, 1-[(4-tert-butyl-2-chloro-phenyl)methyl]-3-(2-oxo-1,3-dihydrobenzimidazol-4-yl)urea]
- inhibition at 0.3 µM [4]: ~100%
- inhibition at 0.3 µM [1]: 100%
- inhibition at 0.3 µM [2]: > 80%

Compound: O=C(NCc1ccc(C(F)(F)F)cn1)Nc1cccc2[nH]c(=O)[nH]c12 [Example 41, 1-(2-oxo-1,3-dihydrobenzimidazol-4-yl)-3-[[5-(trifluoromethyl)-2-pyridyl]methyl]urea]
- inhibition at 0.3 µM [1]: 88%
- inhibition at 0.3 µM [2]: > 80%

Compound: O=C(NCc1ccc(C(F)(F)F)cc1)Nc1cccc2oc(=O)[nH]c12 [Example 24, 1-(4-(trifluoromethyl)benzyl)-3-(2,3-dihydro-2-oxobenzo[d]oxazol-4-yl)urea]
- inhibition at 0.3 µM [1]: 40%

Compound: CN(C)c1cc(C(F)(F)F)ccc1CNC(=O)Nc1cccc2oc(=O)[nH]c12 [Example 29, 1-(2-(dimethylamino)-4-(trifluoromethyl)benzyl)-3-(2,3-dihydro-2-oxobenzo[d]oxazol-4-yl)urea]
- inhibition at 0.3 µM [1]: 8%

Compound: O=C(NCc1ccc(C(F)(F)F)cc1N1CCOCC1)Nc1cccc2[nH]c(=O)[nH]c12 [Example 7, 1-(4-(trifluoromethyl)-2-(4-morpholino)benzyl)-3-(2,3-dihydro-2-oxo-1H-benzo[d]imidazol-4-yl)urea]
- inhibition at 0.3 µM [1]: 33%

Compound: O=C(NCc1ccc(Cl)cc1N1CCC(O)C1)Nc1cccc2[nH]c(=O)[nH]c12 (stereo not shown) [Example 22, 1-(4-chloro-2-(3-hydroxypyrrolidin-1-yl)benzyl)-3-(2,3-dihydro-2-oxo-1H-benzo[d]imidazol-4-yl)urea]
- inhibition at 0.3 µM [1]: 48%

Compound: CC(C)Oc1cc(C(F)(F)F)ccc1CNC(=O)Nc1cccc2c1OCC(=O)N2 [Example 81, 1-[[2-isopropoxy-4-(trifluoromethyl)phenyl]methyl]-3-(3-oxo-4H-1,4-benzoxazin-8-yl)urea]
- inhibition at 0.3 µM [4]: ~100%
- inhibition at 0.3 µM [1]: 100%
- inhibition at 0.3 µM [2]: > 80%

Compound: CN(C)CCOc1nc(C(F)(F)F)ccc1CNC(=O)Nc1cccc2c1OCC(=O)N2 [Example 91, 1-[[2-(2-dimethylaminoethoxy)-6-(trifluoromethyl)-3-pyridyl]methyl]-3-(3-oxo-4H-1,4-benzoxazin-8-yl)urea]
- inhibition at 0.3 µM [1]: 40%

Compound: O=C(NCc1ccncc1)Nc1cccc2[nH]c(=O)[nH]c12 [Example 20, 1-(2,3-dihydro-2-oxo-1H-benzo[d]imidazol-4-yl)-3-((pyridin-4-yl)methyl)urea]
- inhibition at 0.3 µM [1]: 18%

Compound: Cc1ccc(CNC(=O)Nc2cccc3c2OCC(=O)N3)c(N2CCCC2)c1 [Example 90, 1-[(4-methyl-2-pyrrolidin-1-yl-phenyl)methyl]-3-(3-oxo-4H-1,4-benzoxazin-8-yl)urea]
- inhibition at 0.3 µM [1]: 47%

Compound: O=C1COc2cccc(NC(=O)NCc3ccc(C(F)(F)F)cc3)c2N1 [Example 42, 1-(4-(trifluoromethyl)benzyl)-3-(3,4-dihydro-3-oxo-2H-benzo[b][1,4]oxazin-5-yl)urea]
- inhibition at 0.3 µM [1]: 30%

Compound: O=C(NCc1ccc(N2CCCC2)cc1)Nc1cccc2[nH]c(=O)[nH]c12 [Example 15, 1-(4-(pyrrolidin-1-yl)benzyl)-3-(2,3-dihydro-2-oxo-1H-benzo[d]imidazol-4-yl)urea]
- inhibition at 0.3 µM [1]: 54%

Compound: O=C(NCc1ccc(C(F)(F)F)cc1Cl)Nc1cccc2[nH]c(=O)[nH]c12 [Example 3, 1-(2-chloro-4-(trifluoromethyl)benzyl)-3-(2,3-dihydro-2-oxo-1H-benzo[d]imidazol-4-yl)urea]
- inhibition at 0.3 µM [1]: 93%
- inhibition at 0.3 µM [2]: > 80%

Compound: O=C(NCc1ccc(C(F)(F)F)cc1)c1cccc2oc(=O)[nH]c12 [Example 59, N-(4-(trifluoromethyl)benzyl)-2,3-dihydro-2-oxobenzo[d]oxazole-4-carboxamide]
- inhibition at 0.3 µM [5]: 5%

Compound: O=C1COc2c(cccc2NC(=O)NCc2ccc(C(F)(F)F)nc2)N1 [Example 77, 1-(3-oxo-4H-1,4-benzoxazin-8-yl)-3-[[6-(trifluoromethyl)-3-pyridyl]methyl]urea]
- inhibition at 0.3 µM [1]: 71%

Compound: CN(C)c1ccc(CNC(=O)Nc2cccc3[nH]c(=O)[nH]c23)cc1 [Example 14, 1-(4-(dimethylamino)benzyl)-3-(2,3-dihydro-2-oxo-1H-benzo[d]imidazol-4-yl)urea]
- inhibition at 0.3 µM [1]: 32%
